“Also recorded” adds a separate entry of the source.
Tests used:
[1] = test system: rat primary cortical neurons; assay: Neurite outgrowth assay in cortical neuron culture; assay type: cell-based; conditions: for minimal effective concentration: Rattus norvegicus, Primary cortical neuron, 72 h, 3 days exposure of cortical neurons, read-out: concentration giving significant neurite outgrowth; for block of Compound 1-induced enhancement of neurite outgrowth by PLC inhibitor: inhibitor in combination with Compound 1; for effect on neurite outgrowth, substance alone: primary cortical neurons
Protocol: Female rats of 17 days gestation were killed by cervical dislocation and the foetuses were removed from the uterus. Their brains were placed in ice-cold medium of Leibovitz (L15, Gibco, Fisher bioblock, France). Cortex were dissected and meninges were carefully removed. The cortical neurons were dissociated by trypsinization for 30 min at 37° C. (trypsin-EDTA Gibco) in presence of 0.1 mg/ml DNAse I (Roche, France). The reaction was stopped by addition of in medium of Eagle modified by Dulbecco (DMEM; Gibco) with 10% of fetal bovine serum (FBS; Gibco). The suspension was triturated with a 10-ml pipette and using a needle syringe 21G and centrifuged at 350×g for 10 min at room temperature. The pellet of dissociated cells was resuspended in a medium consisting of Neurobasal (Gibco) supplemented with 2% B27 supplement (Gibco), 0.5 mM L-Glutamine (Gibco), an antibiotic-antimicotic mixture. Viable cells were counted in a Neubauer cytometer using the trypan blue exclusion test (Sigma). Cells were seeded on the basis of 30000 cells per Petri dish (ø35 mm, Nunc) precoated with poly-L-lysine.
Cells were allowed to adhere 2 h and maintained in a humidified incubator at 37° C. in 5% CO2-95% air atmosphere.
After neuronal adhesion (2 h after the plating), cultures were exposed to Compound 1 or BDNF for a period of 3 days.
After the 3 days exposure of the neurons to the test compounds, cultures were washed with phosphate-buffered saline (PBS, Gibco) and fixed using 2.5% glutaraldehyde in PBS. Several pictures (˜80) of neurons with neurites without any branching were taken per condition using a digital camera (Coolpix 995; Nikon) mounted on the microscope (Nikon, objective 40×). Neurites were outlined on computer screen using imaging software (Image-Pro Plus, France), which automatically calculates the length.
A global analysis of the data was performed using a one way analysis of variance (ANOVA), followed by Fisher's Protected Least Significant Difference when applicable. The level of significance was set to p<0.05. All results were expressed as mean±sem. N=˜180 cells
The compound of example 1h was tested at 0.1 nM, 1 nM, 10 nM, 100 nM and 1000 nM on two independent cultures comprising 2 Petri dishes per culture and per condition. In parallel, BDNF was tested at 50 ng/ml.

[2] = Non-precipitated withdrawal (physical dependence) after 14-day dosing; assay type: in vivo, rat; conditions: 14 days at 10, 30 and 100 mg/kg/day; 5 days post-treatment; versus no-drug group; listed as Compound 1
Description: Sudden discontinuation of antidepressant medication may produce withdrawal effects caused by physical dependence on the drug. Compounds can be evaluated for physical dependence in a simple animal model where, following a period of chronic dosing (e.g., for 14-20 days), the study drug is stopped and measurements of food intake, body weight and body temperature are taken over the next 5 days. […] This model is suitable for detecting the effects across a broad range of drug classes including opiates, antidepressants and benzodiazepines. […]
Rats treated chronically (14-20 days) with opioids, benzodiazepines Or SSRIs display adverse physical effects after non-precipitated withdrawal of the drugs. The potential consequences of abrupt cessation of dosing with Compound 1 was assessed following 14 days of treatment at 0, 10, 30 and 100 mg/kg/day.

mouse = assay: Mouse light dark box model; assay type: in vivo
Protocol: U73122 was then examined for an in vivo effect on the activity of Example 1 in the mouse light dark box. U73122 was given IP at 30 mg/kg, 120 minutes prior to testing. Compound 1 was dosed orally at 10 mg/kg, 60 minutes prior to testing. […] This experiment was repeated using the anxiolytic compound diazepam to determine whether the activity of U73122 was specific to Compound 1 (FIG. 5).

For `CCOC(=O)c1cn(CC)c2ncc(NC(=O)C(C)C)cc2c1=O` [Example 7, Ethyl 6-(isobutyrylamide)-1-ethyl-1,4-dihydro-4-oxo-1,8-naphthyridine-3-carboxylate], the minimal effective concentration [1] was < 0.1 µM.
With `CCn1cc(C(=O)Nc2ccc(-c3ccccc3)cc2)c(=O)c2cc(NC3Cc4ccccc4C3)cnc21` [Example 6, 4-biphenylamino-6-(2,3-dihydro-1H-inden-2-ylamino)-1-ethyl-1,4-dihydro-4-oxo-1,8-naphthyridine-3-carboxamide] the minimal effective concentration [1] was < 0.1 µM.
In the case of `CCn1cc(C(=O)NC2CC2)c(=O)c2cc(NC3Cc4ccccc4C3)cnc21` [Example 3, Cyclopropylamino 6-(2,3-dihydro-1H-inden-2-ylamino)-1-ethyl-1,4-dihydro-4-oxo-1,8-naphthyridine-3-carboxamide], the minimal effective concentration [1] is reported as < 0.1 µM.
With `S=C([S-])OC1CC2CC1C1CCCC21.[K+]` (centres unmarked) [Example D609, reference compound] the “block of Compound 1-induced enhancement of neurite outgrowth by PLC inhibitor” value [1] was “blocked; also recorded: significant and dose-dependant reduction” and the “effect on neurite outgrowth, substance alone” value [1] was “enhanced neurite outgrowth”.
With `CCn1cc(C(=O)N2CCN(C)CC2)c(=O)c2cc(NC3Cc4ccccc4C3)cnc21` [Example 2, Methylpiperazino 6-(2,3-dihydro-1H-inden-2-ylamino)-1-ethyl-1,4-dihydro-4-oxo-1,8-naphthyridine-3-carboxamide] the minimal effective concentration [1] was < 0.1 µM.
With `CCOC(=O)c1cn(CC)c2ncc(NC3Cc4ccccc4C3)cc2c1=O` [Example 1g, Ethyl 6-(2,3-dihydro-1H-inden-2-ylamino)-1-ethyl-1,4-dihydro-4-oxo-1,8-naphthyridine-3-carboxylate] the minimal effective concentration [1] was < 0.1 µM.
With `CCOC(=O)c1cn(CC)c2ncc(N)cc2c1=O` [Example 1f, Ethyl 1-ethyl-1,4-dihydro-6-amino-4-oxo-1,8-naphthyridine-3-carboxylate] the minimal effective concentration [1] was < 0.1 µM.
For `CCn1cc(C(=O)N2CCOCC2)c(=O)c2cc(N)cnc21` [Example 4, Morpholino 6-amino-1-ethyl-1,4-dihydro-4-oxo-1,8-naphthyridine-3-carboxamide], the minimal effective concentration [1] was < 0.1 µM.
With `CCn1cc(C(=O)N2CCOCC2)c(=O)c2cc(NC3Cc4ccccc4C3)cnc21` [Example 1h] the minimal effective concentration [1] was < 0.1 µM, the “effect on neurite outgrowth, substance alone” value [1] was “enhancement of neurite outgrowth” and the “changes in body temperature, weight gain or food consumption after withdrawal” value [2] was “does not produce signs of withdrawal; also recorded: did not produce significant changes”. For the same compound, the anxiolytic activity (mouse; 10 mg/kg orally, 60 minutes prior to testing) was “robust anxiolytic activity”.
For `COc1ccc2c(c1)CC[C@@H]1[C@@H]2CC[C@]2(C)[C@@H](NCCCCCCN3C(=O)C=CC3=O)CC[C@@H]12` [Example U73122, reference compound], the “block of Compound 1 activity on neurite outgrowth” value ([1]; U73122 at 1 μM, Compound 1 10 nM) was “significant block”, the “concentration at which full block of Compound 1 activity occurs” value ([1]; U73122 tested over 30 nM to 1 μM with Compound 1 10 nM) was 100 nM and the “block of Compound 1-induced enhancement of neurite outgrowth by PLC inhibitor” value [1] was “blocked; also recorded: dose-related block”. For the same compound, the “effect on anxiolytic activity of Compound 1” value (mouse; U73122 30 mg/kg IP in combination with 10 mg/kg p.o. Compound 1) was “blocks; also recorded: fully blocked the anxiolytic effect”, the “effect on the Time, Entries or Distance parameters, alone” value (mouse; U73122 30 mg/kg IP, 120 minutes prior to testing) was “did not have any effect” and the “effect on the animals' responses to diazepam” value (mouse; U73122 30 mg/kg i.p. with diazepam 1 mg/kg p.o.) was “did not cause any change”.
With `CCn1cc(C(=O)Nc2ccc(F)cc2)c(=O)c2cc(NC3Cc4ccccc4C3)cnc21` [Example 5, 4-fluorophenylamine 6-(2,3-dihydro-1H-inden-2-ylamino)-1-ethyl-1,4-dihydro-4-oxo-1,8-naphthyridine-3-carboxamide] the minimal effective concentration [1] was < 0.1 µM.

From patent publication US20140051701A1, “METHODS OF TREATING A DISEASE OR CONDITION OF THE CENTRAL NERVOUS SYSTEM” (Bionomics Limited, priority 2011, published 2014)
